Measurements: ChEMBL document CHEMBL3885861, “Open TG-GATES”

Species: Rattus norvegicus
Test: Open TG-GATES - Regimen: Daily Repeat
Type: toxicity, organism-based, Sprague-Dawley
Parameters: regimen Daily Repeat, gender Male, age 6 weeks
Settings: in vivo, po, 300 mg/kg, route gavage, dose level High; for APTT / Bas / Eos / Fbg / Hb / Ht / Lym / MCH / MCHC / MCV / Mono / Neu / PT / Plat / RBC / Ret / WBC: tissue Blood; for KIDNEY_L / KIDNEY_R / KIDNEY_TOTAL: tissue Kidney; for LIVER: tissue Liver; for A/G / ALP / ALT / AST / BUN / CRE / Ca / Cl / DBIL / GLC / IP / K / LDH / Na / PL / RALB / TBIL / TC / TG / TP / gamma-GTP: tissue Plasma

Cc1cccc(Nc2ccccc2C(=O)O)c1C [MEFENAMIC ACID]
TERMINAL_BW (72 h, time 3 day): 221.3 g
APTT (72 h, time 3 day): 18.9 s
Bas (72 h, time 3 day): 0%
Eos (72 h, time 3 day): 1%
Fbg (72 h, time 3 day): 345 mg/dL
Hb (72 h, time 3 day): 9.4 g/dL
Ht (72 h, time 3 day): 28%
Lym (72 h, time 3 day): 61.8%
MCH (72 h, time 3 day): 21.6 pg
MCHC (72 h, time 3 day): 33.5%
MCV (72 h, time 3 day): 64.6 fL
Mono (72 h, time 3 day): 3.8%
Neu (72 h, time 3 day): 28.4%
PT (72 h, time 3 day): 11.3 s
Plat (72 h, time 3 day): 117.3 x10_4/uL
RBC (72 h, time 3 day): 434.2 x10_4/ul
Ret (72 h, time 3 day): 13.5%
WBC (72 h, time 3 day): 154.9 x10_2/uL
KIDNEY_L (72 h, time 3 day): 1 g
KIDNEY_R (72 h, time 3 day): 1 g
KIDNEY_TOTAL (72 h, time 3 day): 2 g
LIVER (72 h, time 3 day): 11 g
A/G (72 h, time 3 day): 1.2
ALP (72 h, time 3 day): 624.6 IU/L
ALT (72 h, time 3 day): 28.6 IU/L
AST (72 h, time 3 day): 54.6 IU/L
BUN (72 h, time 3 day): 15 mg/dL
CRE (72 h, time 3 day): 0.4 mg/dL
Ca (72 h, time 3 day): 10.7 mg/dL
Cl (72 h, time 3 day): 103.4 meq/L
DBIL (72 h, time 3 day): 0.08 mg/dL
GLC (72 h, time 3 day): 175 mg/dL
IP (72 h, time 3 day): 6.7 mg/dL
K (72 h, time 3 day): 4.1 meq/L
LDH (72 h, time 3 day): 155.2 IU/L
Na (72 h, time 3 day): 140.2 meq/L
PL (72 h, time 3 day): 170.6 mg/dL
RALB (72 h, time 3 day): 2.7 g/dL
TBIL (72 h, time 3 day): 0.1 mg/dL
TC (72 h, time 3 day): 88.4 mg/dL
TG (72 h, time 3 day): 161.8 mg/dL
TP (72 h, time 3 day): 4.9 g/dL
gamma-GTP (72 h, time 3 day): 1.2 IU/L
TERMINAL_BW ([…], time 7 day): 251.1 g
TERMINAL_BW ([…], time 14 day): 275.2 g
TERMINAL_BW ([…], time 28 day): 342.8 g
APTT ([…], time 7 day): 17.3 s
Bas ([…], time 7 day): 0%
Eos ([…], time 7 day): 1%
Fbg ([…], time 7 day): 304.2 mg/dL
Hb ([…], time 7 day): 11.1 g/dL
Ht ([…], time 7 day): 32.3%
Lym ([…], time 7 day): 63.6%
MCH ([…], time 7 day): 22 pg
MCHC ([…], time 7 day): 34.4%
MCV ([…], time 7 day): 64.1 fL
Mono ([…], time 7 day): 3.4%
Neu ([…], time 7 day): 28.2%
PT ([…], time 7 day): 11.5 s
Plat ([…], time 7 day): 160 x10_4/uL
RBC ([…], time 7 day): 506.4 x10_4/ul
Ret ([…], time 7 day): 14.9%
WBC ([…], time 7 day): 201.4 x10_2/uL
APTT ([…], time 14 day): 19.6 s
Bas ([…], time 14 day): 0%
Eos ([…], time 14 day): 1%
Fbg ([…], time 14 day): 291.8 mg/dL
Hb ([…], time 14 day): 11.2 g/dL
Ht ([…], time 14 day): 33.5%
Lym ([…], time 14 day): 56.8%
MCH ([…], time 14 day): 23.9 pg
MCHC ([…], time 14 day): 33.2%
MCV ([…], time 14 day): 71.9 fL
Mono ([…], time 14 day): 2.8%
Neu ([…], time 14 day): 37.2%
PT ([…], time 14 day): 11.9 s
Plat ([…], time 14 day): 200.5 x10_4/uL
RBC ([…], time 14 day): 466.8 x10_4/ul
Ret ([…], time 14 day): 18.8%
WBC ([…], time 14 day): 198.5 x10_2/uL
APTT ([…], time 28 day): 19 s
Bas ([…], time 28 day): 0%
Eos ([…], time 28 day): 0.8%
Fbg ([…], time 28 day): 318 mg/dL
Hb ([…], time 28 day): 10 g/dL
Ht ([…], time 28 day): 32.3%
Lym ([…], time 28 day): 54.2%
MCH ([…], time 28 day): 21.1 pg
MCHC ([…], time 28 day): 30.8%
MCV ([…], time 28 day): 68.5 fL
Mono ([…], time 28 day): 2.8%
Neu ([…], time 28 day): 39.2%
PT ([…], time 28 day): 11.6 s
Plat ([…], time 28 day): 186.5 x10_4/uL
RBC ([…], time 28 day): 473 x10_4/ul
Ret ([…], time 28 day): 22.3%
WBC ([…], time 28 day): 274.1 x10_2/uL
KIDNEY_L ([…], time 7 day): 1.2 g
KIDNEY_R ([…], time 7 day): 1.1 g
KIDNEY_TOTAL ([…], time 7 day): 2.3 g
KIDNEY_L ([…], time 14 day): 1.2 g
KIDNEY_R ([…], time 14 day): 1.2 g
KIDNEY_TOTAL ([…], time 14 day): 2.4 g
KIDNEY_L ([…], time 28 day): 1.4 g
KIDNEY_R ([…], time 28 day): 1.4 g
KIDNEY_TOTAL ([…], time 28 day): 2.8 g
LIVER ([…], time 7 day): 12.2 g
LIVER ([…], time 14 day): 13.3 g
LIVER ([…], time 28 day): 15.2 g
A/G ([…], time 7 day): 1.3
ALP ([…], time 7 day): 574.4 IU/L
ALT ([…], time 7 day): 29.6 IU/L
AST ([…], time 7 day): 60.6 IU/L
BUN ([…], time 7 day): 15.8 mg/dL
CRE ([…], time 7 day): 0.4 mg/dL
Ca ([…], time 7 day): 10.3 mg/dL
Cl ([…], time 7 day): 103.6 meq/L
DBIL ([…], time 7 day): 0.084 mg/dL
GLC ([…], time 7 day): 197.2 mg/dL
IP ([…], time 7 day): 7.3 mg/dL
K ([…], time 7 day): 3.9 meq/L
LDH ([…], time 7 day): 227.8 IU/L
Na ([…], time 7 day): 140.6 meq/L
PL ([…], time 7 day): 150.4 mg/dL
RALB ([…], time 7 day): 2.9 g/dL
TBIL ([…], time 7 day): 0.1 mg/dL
TC ([…], time 7 day): 79.4 mg/dL
TG ([…], time 7 day): 136.4 mg/dL
TP ([…], time 7 day): 5 g/dL
gamma-GTP ([…], time 7 day): 1 IU/L
A/G ([…], time 14 day): 1.2
ALP ([…], time 14 day): 476.5 IU/L
ALT ([…], time 14 day): 30 IU/L
AST ([…], time 14 day): 57.2 IU/L
BUN ([…], time 14 day): 19.2 mg/dL
CRE ([…], time 14 day): 0.5 mg/dL
Ca ([…], time 14 day): 10.4 mg/dL
Cl ([…], time 14 day): 104 meq/L
DBIL ([…], time 14 day): 0.1 mg/dL
GLC ([…], time 14 day): 187.5 mg/dL
IP ([…], time 14 day): 6.5 mg/dL
K ([…], time 14 day): 4.4 meq/L
LDH ([…], time 14 day): 145.2 IU/L
Na ([…], time 14 day): 141.5 meq/L
PL ([…], time 14 day): 162.2 mg/dL
RALB ([…], time 14 day): 2.9 g/dL
TBIL ([…], time 14 day): 0.1 mg/dL
TC ([…], time 14 day): 78 mg/dL
TG ([…], time 14 day): 170.2 mg/dL
TP ([…], time 14 day): 5.2 g/dL
gamma-GTP ([…], time 14 day): 1.8 IU/L
A/G ([…], time 28 day): 1.2
ALP ([…], time 28 day): 382.8 IU/L
ALT ([…], time 28 day): 30.8 IU/L
AST ([…], time 28 day): 68.2 IU/L
BUN ([…], time 28 day): 20.5 mg/dL
CRE ([…], time 28 day): 0.5 mg/dL
Ca ([…], time 28 day): 10.4 mg/dL
Cl ([…], time 28 day): 104.2 meq/L
DBIL ([…], time 28 day): 0.1 mg/dL
GLC ([…], time 28 day): 190.5 mg/dL
IP ([…], time 28 day): 6.6 mg/dL
K ([…], time 28 day): 3.7 meq/L
LDH ([…], time 28 day): 166.2 IU/L
Na ([…], time 28 day): 141.2 meq/L
PL ([…], time 28 day): 176.8 mg/dL
RALB ([…], time 28 day): 2.9 g/dL
TBIL ([…], time 28 day): 0.2 mg/dL
TC ([…], time 28 day): 87.2 mg/dL
TG ([…], time 28 day): 212 mg/dL
TP ([…], time 28 day): 5.3 g/dL
gamma-GTP ([…], time 28 day): 2 IU/L
